Assay results as given in ChEMBL document CHEMBL4431353, “Optimization of a Series of Bivalent Triazolopyridazine Based Bromodomain and Extraterminal Inhibitors: The Discovery of (3R)-4-[2-[4-[1-(3-Methoxy-[1,2,4]triazolo[4,3-b]pyridazin-6-yl)-4-piperidyl]phenoxy]ethyl]-1,3-dimethyl-piperazin-2-one (AZD5153)” (J Med Chem, 2016).
Values after ≈ are worked out from the molar mass of the structure shown.

Assays:
[1] = Lipophilicity, log D of compound at pH 7.4; assay type: physicochemical; details: buffer
[2] = molecular target: Bromodomain-containing protein 4 (Homo sapiens, UniProt O60885, N140A)
[3] = molecular target: Bromodomain-containing protein 4 (Homo sapiens, UniProt O60885, N433A)
MM1.S = experiment: Growth inhibition of human MM1S cells after 72 hrs by alamar blue assay; assay type: functional
[4] = molecular target: T1, Bromodomain-containing protein 4 (Homo sapiens, UniProt O60885); experiment: Inhibition of BRD4 in human MCF7 cells assessed as down regulation of ERalpha after 18 to 24 hrs by Hoechst staining based cellomics arrayscan analysis; assay type: cell-based
[5] = Intrinsic clearance in human hepatocytes assessed per million cells; assay type: ADME, cell-based, Hepatocyte; details: read-out: CLH
[6] = molecular target: T1, Bromodomain-containing protein 4; experiment: Inhibition of BRD4 in human MM1S cells assessed as down regulation of c-Myc incubated for 16 hrs by flow cytometry; assay type: cell-based
[7] = Thermodynamic solubility of compound in pH 7.4 solution; assay type: physicochemical; details: buffer, read-out: Therm_solubility
[8] = molecular target: T1, Bromodomain-containing protein 4; experiment: Displacement of Alexa647-labeled JQ1 derivative from wild type BRD4 tandem domain (44 to 460 residues) (unknown origin) incubated for 1 hr by fluorescence polarization assay
[9] = Intrinsic clearance in rat hepatocytes assessed per million cells; assay type: ADME, cell-based, Hepatocyte; details: read-out: CLH
[10] = Volume of distribution at steady state in dog; assay type: ADME, Canis lupus familiaris; details: in vivo, read-out: Vdss
[11] = Apparent permeability from apical to basolateral side in human Caco2 cells; assay type: ADME, cell-based; details: Caco-2
[12] = Unbound fraction in rat plasma; assay type: ADME, cell-free
[13] = Unbound fraction in dog plasma; assay type: ADME, cell-free, Canis lupus familiaris
[14] = Oral bioavailability in rat; assay type: ADME, organism-based; details: in vivo
[15] = Intrinsic clearance in dog hepatocytes assessed per million cells; assay type: ADME, cell-based, Canis lupus familiaris, Hepatocyte; details: read-out: CLH
[16] = Dissociation constant, basic pKa of compound; assay type: physicochemical
[17] = Plasma clearance in rat; assay type: ADME
[18] = Volume of distribution at steady state in rat; assay type: ADME; details: in vivo, read-out: Vdss
[19] = Oral bioavailability in dog; assay type: ADME, organism-based, Canis lupus familiaris; details: in vivo
[20] = Unbound fraction in human plasma; assay type: ADME, cell-free
[21] = Plasma clearance in dog; assay type: ADME, Canis lupus familiaris
[22] = molecular target: T1, Bromodomain-containing protein 4; experiment: Inhibition of BRD4 in human LNCAP cells assessed as down regulation of nuclear AR level by immunofluorescence assay; assay type: cell-based

SMILES	logD [1]	Ki [2] [nM]	Ki [3] [nM]	GI50 (MM1.S) [nM]	IC50 [4] [nM]	hepatocyte CLint [5] [µL/min/1e6 cells]	IC50 [6] [nM]	solubility thermodynamic [7] [µM]	Ki [8] [nM]	IC50 [22] [nM]	other results
Cc1nnc2ccc(N3CCC(c4ccc(OCCN5CCN(C)C(=O)[C@H]5C)cc4)CC3)nn12	2.4	200	251	5.01	39.8	7.2	25.1	670 (≈ 311 µg/mL)	15.8	–	–
COc1nnc2ccc(N3CCC(c4ccc(N5CCC(N6CCN(C)C(=O)[C@H]6C)CC5)cc4)CC3)nn12	2	316	158	–	158	2.7	–	760 (≈ 394 µg/mL)	50.1	–	–
COc1nnc2ccc(N3CCC(c4ccc(CCN5CCN(C)C(=O)[C@H]5C)cc4)CC3)nn12	2.5	126	100	5.01	25.1	2 to 2.2	10	280 to 570 (≈ 130 to 264 µg/mL)	3.16	–	hepatocyte CLint [9]: < 1 µL/min/1e6 cells; Vd [10]: 0.9 L/kg; Papp A→B [11]: 28 ×10⁻⁶ cm/s; fraction unbound [12]: 0.02; fraction unbound [13]: 0.24; bioavailability [14]: 72%; hepatocyte CLint [15]: < 1 µL/min/1e6 cells; pKa [16]: 6.3; clearance [17]: 3 mL/min/kg; Vd [18]: 0.7 L/kg; bioavailability [19]: 98%; fraction unbound [20]: 0.25; clearance [21]: 3 mL/min/kg
COc1nnc2ccc(N3CCC(c4ccc(OCCN5[C@H](C)CN(C)C(=O)[C@H]5C)cc4)CC3)nn12	2.3	251	126	6.31	20	80	12.6	750 (≈ 370 µg/mL)	7.94	–	–
COc1nnc2ccc(N3CCC(c4ccc(OCCN5C[C@@H](C)N(C(C)=O)[C@@H](C)C5)cc4)CC3)nn12	3.4	158	50.1	–	39.8	48	–	280 (≈ 142 µg/mL)	5.01	–	–
C[C@@H]1C(=O)N(C)CCN1CCOc1ccc(C2CCN(c3ccc4nncn4n3)CC2)cc1	1.9	2510	6310	–	> 3160	180	1260	1000 (≈ 450 µg/mL)	> 1000	1580	–
CN1CCN(CCOc2ccc(C3CCN(c4ccc5nnc(C(F)(F)F)n5n4)CC3)cc2)C(=O)C1	3.1	7940	398	–	1000	26	–	52 (≈ 26.2 µg/mL)	2510	–	–
COc1nnc2ccc(N3CCC(c4ccc(OCCCCN5CCN(C)C(=O)[C@H]5C)cc4)CC3)nn12	2.8	100	63.1	–	20	12	–	470 (≈ 239 µg/mL)	6.31	–	–

The next lines start with results.

logD [1]	Ki [2] [nM]	Ki [3] [nM]	GI50 (MM1.S) [nM]	IC50 [4] [nM]	hepatocyte CLint [5] [µL/min/1e6 cells]	IC50 [6] [nM]	solubility thermodynamic [7] [µM]	Ki [8] [nM]	IC50 [22] [nM]	SMILES	other results
2.2	1000	251	–	316	< 1.4	79.4	900 (≈ 432 µg/mL)	126	–	COc1nnc2ccc(N3CCC(c4ccc(OCCN5CCN(C)C(=O)[C@@H]5C)cc4)CC3)nn12	–
3.3 to 4.2	63.1	398	5.01	25.1	70	10	63 (≈ 32.6 µg/mL)	7.94	39.8	C[C@@H]1C(=O)N(C)CCN1CCOc1ccc(C2CCN(c3ccc4nnc(C(F)(F)F)n4n3)CC2)cc1	–
1.7	100	158	1.58	3.98	4 to 4.1	< 2	460 to 1000 (≈ 232 to 505 µg/mL)	10	–	COc1nnc2ccc(N3CCC(c4ccc(N5CC(CN6CCN(C)C(=O)[C@H]6C)C5)cc4)CC3)nn12	hepatocyte CLint [9]: < 1 µL/min/1e6 cells; Vd [10]: 0.7 L/kg; Papp A→B [11]: 46 ×10⁻⁶ cm/s; fraction unbound [12]: 0.05; fraction unbound [13]: 0.27; bioavailability [14]: 57%; hepatocyte CLint [15]: 3 µL/min/1e6 cells; pKa [16]: 5.9; clearance [17]: 7 mL/min/kg; Vd [18]: 1.61 L/kg; bioavailability [19]: 73%; fraction unbound [20]: 0.32; clearance [21]: 5 mL/min/kg
1.7	398	200	–	794	< 1.2	–	870 (≈ 427 µg/mL)	63.1	–	COc1nnc2ccc(N3CCC(c4ccc(N5CC(N6CCN(C)C(=O)[C@H]6C)C5)cc4)CC3)nn12	–
2.4	63.1	79.4	< 1.58	20	5.1	3.16	> 1000	3.98	–	COc1nnc2ccc(N3CCC(c4ccc(OCCCN5CCN(C)C(=O)[C@H]5C)cc4)CC3)nn12	–
2.9	126	158	–	31.6	21	20	660 (≈ 327 µg/mL)	12.6	25.1	CSc1nnc2ccc(N3CCC(c4ccc(OCCN5CCN(C)C(=O)[C@H]5C)cc4)CC3)nn12	–
2.4	316	316	3.16	63.1	4 to 4.4	15.8	1600 to 1680 (≈ 788 to 828 µg/mL)	12.6	25.1	C[C@@H]1C(=O)N(C)CCN1CCOc1ccc(C2CCN(c3ccc4nnc(N(C)C)n4n3)CC2)cc1	hepatocyte CLint [9]: 13 µL/min/1e6 cells; fraction unbound [12]: 0.04; fraction unbound [13]: 0.09; bioavailability [14]: 42%; hepatocyte CLint [15]: 18 µL/min/1e6 cells; clearance [17]: 6 mL/min/kg; Vd [18]: 0.4 L/kg; fraction unbound [20]: 0.16
3.1	316	200	19.9	39.8	24	79.4	63 (≈ 30.5 µg/mL)	12.6	25.1	C[C@@H]1C(=O)N(C)CCN1CCOc1ccc(C2CCN(c3ccc4nnc(Cl)n4n3)CC2)cc1	–
3	1000	316	–	501	18	–	65 (≈ 32.7 µg/mL)	200	316	CN1CCN(CCOc2ccc(C3CCN(c4ccc5nnc(C(F)(F)F)n5n4)CC3)cc2)CC1=O	–
2.5	15.8	50.1	< 2	1.58	12	< 2	> 1000	1.58	–	COc1nnc2ccc(N3CCC(c4ccc(OCCN5[C@H](C)CN(C(C)=O)C[C@@H]5C)cc4)CC3)nn12	hepatocyte CLint [9]: 13 µL/min/1e6 cells; Vd [10]: 0.6 L/kg; Papp A→B [11]: 30 ×10⁻⁶ cm/s; fraction unbound [12]: 0.06; fraction unbound [13]: 0.16; bioavailability [14]: 40%; hepatocyte CLint [15]: 7 µL/min/1e6 cells; pKa [16]: 6.2; clearance [17]: 17 mL/min/kg; Vd [18]: 1.5 L/kg; bioavailability [19]: 28%; fraction unbound [20]: 0.19; clearance [21]: 11 mL/min/kg
